Experimental data published in patent US9433592B2, “Pharmaceutical or veterinary antiviral compositions” (priority 2009, dated 2016).
“Also recorded” adds a separate entry of the source.

How the values were obtained:
[1] = test system: H1N1 A/New Caledonia/20/99; type: cell-based, influenza A virus
H3N2 A/Moscow/10/99 = type: cell-based, influenza A virus
H5N1 A/Turkey/582/2006 = type: cell-based, influenza A virus
[2] = test system: H5N2 A/Finch/England/2051/94; type: cell-based, influenza A virus
[3] = test system: pandemic H1N1 virus (A/California/07/2009); type: cell-based, influenza A virus
influenza A viruses = assay: Selectivity index summary (ratio between CC50 and EC50) on the viruses; type: cell-based, influenza A virus; conditions: summary over the viruses tested (FIG. 4)
[4] = test system: H7N1 A/Chicken/Italy/2076/99; type: cell-based, influenza A virus
in vitro = conditions: human

SMILES	inhibition of the infectious cycle of H1N1 virus [1]	inhibition of the infectious cycle of H3N2 virus (H3N2 A/Moscow/10/99)	inhibition of the infectious cycle of H5N1 virus (H5N1 A/Turkey/582/2006)	inhibition of the infectious cycle of H5N2 virus [2]	antiviral activity on pandemic H1N1 virus [3]	inhibitor class by selectivity index (SI = CC50/EC50) (influenza A viruses)	inhibition of the infectious cycle of low-MOI H1N1 virus [1]	inhibition of the infectious cycle of low-MOI H7N1 virus [4]	CC50 (in vitro)	inhibition of the infectious cycle of low-MOI pandemic H1N1 virus [3]
COc1ccc(OC)c(C(O)CNC(=O)CN)c1.Cl (racemic) [midodrine, Acetamide, 2-amino-N-[2-(2,5-dimethoxyphenyl)-2-hydroxyethyl]-monohydrochloride, (±)-]	inhibits the infectious cycle of all the viruses tested	inhibits the infectious cycle of all the viruses tested	inhibits the infectious cycle of all the viruses tested	inhibits the infectious cycle of all the viruses tested	characterized by antiviral activity; also recorded: inhibits the infectious cycle of all the viruses tested	moderate (a moderate inhibitor has an SI between 10 and 50)				
CCN[C@H]1CN(CCCOC)S(=O)(=O)c2sc(S(N)(=O)=O)cc21 [brinzolamide, (R)-(+)-4-Ethylamino-2-(3-methoxypropyl)-3,4-dihydro-2H-thieno[3,2-e]-1,2-thiazine-6-sulfonamide-1,1-dioxide]		inhibits primarily the infectious cycle			do not seem to have an impact		inhibits primarily the infectious cycle	inhibits primarily the infectious cycle	≥ 666 µM	
Cc1nccc2c1[nH]c1cc(O)ccc12 [harmol, 1-Methyl-9H-beta-carbolin-7-ol]		inhibits the infectious cycle	inhibits the infectious cycle	inhibits the infectious cycle	characterized by antiviral activity				95 µM	inhibits the infectious cycle
C1COC(NC(C2CC2)C2CC2)=N1 [rilmenidine]	inhibits the infectious cycle	inhibits the infectious cycle		inhibits the infectious cycle	do not seem to have an impact				1120 µM	
